From US20230135152A1 (ACURASTEM INCORPORATED, priority 2020, published 2023)

What was measured:
PIKFYVE [1] = target: T1, PIKFYVE (Homo sapiens, UniProt Q9Y2I7); experiment: PIKFYVE assay (luciferase ADP-Glo kinase assay, Promega); type: biochemical
Method: The activity of Compounds 1-20 was measured using a PIKFYVE assay (luciferase ADP-Glo kinase assay available from Promega Corp. of Madison, Wis.).
The activity of Compounds 39-90 was also measured using a PIKFYVE assay (luciferase ADP-Glo kinase assay available from Promega Corp. of Madison, Wis.).
The activity of Compounds 93-347 was also measured using a PIKFYVE assay (luciferase ADP-Glo kinase assay available from Promega Corp. of Madison, Wis.).

PIKFYVE [2] = target: T1, PIKFYVE; experiment: Cell-based Pikfyve inhibition activity assay (EEA1 staining, mean vesicle size in BJ fibroblast cells); details: Table 4, 4 hours treatment, 3 μM Apilimod = 100% inhibition
Method: BJ fibroblast cells were obtained from American Type Cell Culture (ATCC, CRL-2522). The cells were maintained in DMEM (Genesee Scientific, 25-500) supplemented with 10% fetal bovine serum (Genesee Scientific, 25-514) and 1% penicillin-streptomycin (Genesee Scientific, 25-512) at 37° C. in the atmosphere 5% CO2. BJ fibroblasts were plated into black flat clear bottom 96-well plates (Grenier, 655090) at a density of 3×10^3 per well and were allowed to attach in culture for 8-10 hours before drug treatment. Drugs were tested at eleven doses separated by 3 fold from 0.03 nM to 3000 nM in triplicates for 4 hours at 37° C. After 4 hours, treatment media was aspirated and replaced with 4% Paraformaldehyde (Electron Microscopy Science, 15714-S) and cells were fixed at room temperature for 5 minutes. 4% PFA in wells were then discarded and replaced with a blocking buffer consisting of 1×PBS with 0.1% Tween (Sigma-Aldrich, P1754-500), 5% Donkey Serum (Jackson ImmunoResearch, 017-000-121), and 1% BSA (Caisson Labs, B005-50GM) and incubated at room temperature for 30 minutes. Blocking buffer was then discarded and replaced with a primary EEA1 antibody (Fisher Scientific, BD610457) in a 1:1000 dilution and incubated at 4° C. overnight. Following overnight incubation, plates were washed with 1×PBS three times and incubated with secondary antibody Donkey anti-Mouse IgG, Alexa Fluor 555 (Invitrogen, A31570) (1:1000 dilution) for 1 hour at room temperature in the dark. Subsequently cell plates were washed with 1×PBS three times and can be stored at 4° C. if not being proceeding with imaging procedure.
Images were acquired with 20× objective (ImageXpress MicroConfocal, Molecular Devices) creating z-series of 5 planes (5 steps, […]), 16 tiles per well. Images were then analyzed using a custom CellProfiler protocol to obtain mean vesicle size. The mean vesicle size from 16 images was used as the output for each well. The mean vesicle size from 0.5% DMSO treated condition was considered as having no Pikfyve inhibition activity and the 3 μM Apilimod treated condition was considered as having 100% inhibition activity. The mean vesicle size was converted to % inhibition activity and the data was fitted to a dose-response curve using log(inhibitor) vs normalized response-variable slope using GraphPad Prism.

T1 sequence (Q9Y2I7 whole entry): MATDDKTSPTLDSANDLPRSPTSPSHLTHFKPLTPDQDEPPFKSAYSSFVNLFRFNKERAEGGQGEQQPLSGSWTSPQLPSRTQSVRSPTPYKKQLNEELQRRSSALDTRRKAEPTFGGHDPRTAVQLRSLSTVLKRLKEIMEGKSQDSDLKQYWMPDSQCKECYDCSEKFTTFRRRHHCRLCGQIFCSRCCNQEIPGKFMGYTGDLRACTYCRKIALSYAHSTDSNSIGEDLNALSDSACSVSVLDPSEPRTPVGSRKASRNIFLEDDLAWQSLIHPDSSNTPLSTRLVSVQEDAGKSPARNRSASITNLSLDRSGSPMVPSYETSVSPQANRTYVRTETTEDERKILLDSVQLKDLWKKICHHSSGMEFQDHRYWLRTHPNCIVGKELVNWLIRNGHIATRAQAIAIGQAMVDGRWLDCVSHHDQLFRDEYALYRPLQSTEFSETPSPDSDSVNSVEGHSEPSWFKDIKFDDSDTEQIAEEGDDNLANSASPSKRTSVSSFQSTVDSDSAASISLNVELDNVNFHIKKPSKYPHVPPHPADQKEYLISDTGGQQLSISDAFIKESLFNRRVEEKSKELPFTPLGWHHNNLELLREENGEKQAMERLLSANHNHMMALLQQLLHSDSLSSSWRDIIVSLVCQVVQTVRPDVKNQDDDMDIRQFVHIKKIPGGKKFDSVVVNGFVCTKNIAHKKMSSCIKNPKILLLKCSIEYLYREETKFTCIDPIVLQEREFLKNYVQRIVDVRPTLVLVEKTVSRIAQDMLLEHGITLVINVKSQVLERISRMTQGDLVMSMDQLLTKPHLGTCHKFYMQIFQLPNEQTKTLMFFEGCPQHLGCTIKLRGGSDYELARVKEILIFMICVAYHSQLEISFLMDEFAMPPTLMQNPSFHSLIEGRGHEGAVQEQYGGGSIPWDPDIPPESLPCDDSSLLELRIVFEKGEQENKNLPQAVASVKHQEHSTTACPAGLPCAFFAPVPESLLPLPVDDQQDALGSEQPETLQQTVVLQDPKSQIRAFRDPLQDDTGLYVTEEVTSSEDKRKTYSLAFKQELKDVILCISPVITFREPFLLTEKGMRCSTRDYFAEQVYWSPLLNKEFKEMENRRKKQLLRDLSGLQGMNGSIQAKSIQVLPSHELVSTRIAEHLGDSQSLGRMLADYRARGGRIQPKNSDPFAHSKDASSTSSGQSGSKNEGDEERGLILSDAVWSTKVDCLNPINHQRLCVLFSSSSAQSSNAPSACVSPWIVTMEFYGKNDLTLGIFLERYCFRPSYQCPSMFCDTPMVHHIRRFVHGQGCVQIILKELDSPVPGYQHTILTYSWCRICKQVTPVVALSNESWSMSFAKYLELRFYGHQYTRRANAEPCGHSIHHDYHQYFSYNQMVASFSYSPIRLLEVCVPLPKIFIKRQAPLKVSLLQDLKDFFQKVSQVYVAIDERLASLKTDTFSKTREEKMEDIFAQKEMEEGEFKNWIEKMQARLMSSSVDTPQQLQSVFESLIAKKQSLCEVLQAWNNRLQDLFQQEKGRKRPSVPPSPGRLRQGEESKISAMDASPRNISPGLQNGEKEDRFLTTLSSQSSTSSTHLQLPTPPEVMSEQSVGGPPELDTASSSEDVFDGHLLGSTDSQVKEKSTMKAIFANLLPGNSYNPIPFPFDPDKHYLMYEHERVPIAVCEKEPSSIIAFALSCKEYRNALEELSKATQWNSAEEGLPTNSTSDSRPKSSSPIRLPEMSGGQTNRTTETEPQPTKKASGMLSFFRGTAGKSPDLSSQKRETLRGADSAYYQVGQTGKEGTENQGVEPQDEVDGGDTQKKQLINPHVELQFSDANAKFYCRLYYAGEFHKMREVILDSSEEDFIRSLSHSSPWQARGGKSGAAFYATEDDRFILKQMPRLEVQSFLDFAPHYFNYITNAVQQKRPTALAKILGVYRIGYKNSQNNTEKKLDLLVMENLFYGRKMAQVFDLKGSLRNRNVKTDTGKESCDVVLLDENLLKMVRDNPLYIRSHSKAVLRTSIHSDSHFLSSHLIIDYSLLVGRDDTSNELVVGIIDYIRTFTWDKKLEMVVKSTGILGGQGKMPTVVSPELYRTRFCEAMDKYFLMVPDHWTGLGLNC

Row | SMILES | IC50 (PIKFYVE [1]; Table 3) [nM] | EC50 (PIKFYVE [2]) [nM] | IC50 (PIKFYVE [1]; Table 2) [nM]
1 | Cc1cccc(-c2ccn(-c3cc(N4CCOCC4)nc(OC[C@@H](O)c4ccccc4)n3)n2)c1 (single isomer, unassigned) [Compound 57] | – | 20 to 100 | < 5
2 | CO[C@@H](CO)c1nc(N2CCOCC2)cc(-n2ccc(-c3csc4ccccc34)n2)n1 (single isomer, unassigned) [Compound 259] | 3 to 10 | 100 to 500 | –
3 | COC(CO)c1nc(N2CCOCC2)cc(-n2nc(-c3c[nH]c4ccccc34)cc2C)n1 (single isomer, unassigned) [Compound 260, 2-(4-(3-(1H-indol-3-yl)-5-methyl-1H-pyrazol-1-yl)-6-morpholinopyrimidin-2-yl)-2-methoxyethan-1-ol] | < 3 | < 20 | –
4 | CO[C@@H](CO)c1nc(N2CCOCC2)cc(-n2nc(-c3c[nH]c4ccccc34)cc2C)n1 (single isomer, unassigned) [Compound 261] | < 3 | < 20 | –
5 | CO[C@H](CO)c1nc(N2CCO[C@H](C)C2)cc(-n2ccc(-c3cccc(C)c3)n2)n1 (single isomer, unassigned) [Compound 307] | 10 to 100 | > 5000 | –
6 | CO[C@@H](CO)c1nc(N2CCO[C@H](C)C2)cc(-n2ccc(-c3cccc(C)c3)n2)n1 (single isomer, unassigned) [Compound 308] | 10 to 100 | 500 to 5000 | –
7 | Cc1cccc(-c2ccn(-c3cc(N4CCOCC4)nc([C@@H](CO)OC(F)F)n3)n2)c1 (single isomer, unassigned) [Compound 309] | 3 to 10 | 500 to 5000 | –
8 | Cc1cccc(-c2ccn(-c3cc(N4CCOCC4)nc([C@H](CO)OC(F)F)n3)n2)c1 (single isomer, unassigned) [Compound 310] | 10 to 100 | 500 to 5000 | –

Further lines, results first:

Row | IC50 (PIKFYVE [1]; Table 3) [nM] | EC50 (PIKFYVE [2]) [nM] | IC50 (PIKFYVE [1]; Table 2) [nM] | SMILES
9 | 3 to 10 | 100 to 500 | – | COC(CO)c1nc(N2CCOCC2)cc(-n2ccc(-c3cccc(C)c3)n2)n1 (racemic) [Compound 156, 2-methoxy-2-(4-morpholino-6-(3-(m-tolyl)-1H-pyrazol-1-yl)pyrimidin-2-yl)ethan-1-ol]
10 | – | 20 to 100 | < 5 | Cc1cccc(-c2ccn(-c3cc(N4CCOCC4)nc(OC[C@H](O)c4ccccc4)n3)n2)c1 (single isomer, unassigned) [Compound 58]
11 | 3 to 10 | 100 to 500 | – | COC[C@@H](O)c1nc(N2CCOCC2)cc(-n2ccc(-c3cccc(C)c3)n2)n1 (single isomer, unassigned) [Compound 170]
12 | 10 to 100 | 500 to 5000 | – | CO[C@H](CO)c1nc(N2CCOCC2)cc(-n2nc(-c3ccccc3)cc2C)n1 (single isomer, unassigned) [Compound 205]
13 | 3 to 10 | 100 to 500 | – | CO[C@H](CO)c1nc(N2CCOCC2)cc(-n2nc(-c3cccc(C)c3)cc2C)n1 (single isomer, unassigned) [Compound 224]
14 | < 3 | 100 to 500 | – | CO[C@H](CO)c1nc(N2CCOCC2)cc(-n2ccc(-c3csc4ccccc34)n2)n1 (single isomer, unassigned) [Compound 258]
15 | 10 to 100 | 500 to 5000 | – | CO[C@H](CO)c1nc(N2CCO[C@@H](C)C2)cc(-n2ccc(-c3cccc(C)c3)n2)n1 (single isomer, unassigned) [Compound 305]
16 | 100 to 5000 | > 5000 | – | CO[C@@H](CO)c1nc(N2CCO[C@@H](C)C2)cc(-n2ccc(-c3cccc(C)c3)n2)n1 (single isomer, unassigned) [Compound 306]
17 | 3 to 10 | 100 to 500 | – | CCO[C@H](CO)c1nc(N2CCOCC2)cc(-n2ccc(-c3cccc(C)c3)n2)n1 (single isomer, unassigned) [Compound 311]
18 | 3 to 10 | 100 to 500 | – | CCO[C@@H](CO)c1nc(N2CCOCC2)cc(-n2ccc(-c3cccc(C)c3)n2)n1 (single isomer, unassigned) [Compound 312]
19 | < 3 | < 20 | – | Cc1cccc(-c2cc([C@H](C)O)n(-c3cc(N4CCOCC4)nc(OCCc4cnn(C)c4)n3)n2)c1 (single isomer, unassigned) [Compound 313]
